Tests used:
Format in all cases: in vivo
Settings in all cases: 250 g/Ha, evaluated after 13 days
Lolium perenne (LOLPE) [1] = assay: Post-emergence herbicidal glasshouse test
From the text: (§1) Compounds are applied at 250 g/h. […] NT=not tested.

[2] = tested on: Alopecurus myosuroides (ALOMY); assay: Post-emergence herbicidal glasshouse test
From the text: as §1

Avena fatua (AVEFA) [3] = assay: Post-emergence herbicidal glasshouse test
From the text: as §1

Setaria faberi (SETFA) [4] = assay: Post-emergence herbicidal glasshouse test
From the text: as §1

Lolium perenne (LOLPE) [5] = assay: Pre-emergence herbicidal glasshouse test
From the text: as §1

[6] = tested on: Alopecurus myosuroides (ALOMY); assay: Pre-emergence herbicidal glasshouse test
From the text: as §1

Avena fatua (AVEFA) [7] = assay: Pre-emergence herbicidal glasshouse test
From the text: as §1

Setaria faberi (SETFA) [8] = assay: Pre-emergence herbicidal glasshouse test
From the text: as §1

[9] = tested on: Echinochloa crus-galli (ECHCG); assay: Pre-emergence herbicidal glasshouse test
From the text: as §1

[10] = tested on: Echinochloa crus-galli (ECHCG); assay: Post-emergence herbicidal glasshouse test
From the text: as §1

## CC#Cc1cc(C)c(C2=C(OC(=O)OC)CC3(CCN(S(C)(=N)=O)CC3)CC2=O)c(C)c1 (centres unmarked) [Compound P3, [9-(2,6-dimethyl-4-prop-1-ynyl-phenyl)-3-(methylsulfonimidoyl)-10-oxo-3-azaspiro[5.5]undec-8-en-8-yl] methyl carbonate]
Lolium perenne (LOLPE) [1]
  percentage damage caused to the plant, LOLPE: 5 (5=80-100%)
[2]
  percentage damage caused to the plant, ALOMY: 5 (5=80-100%)
Avena fatua (AVEFA) [3]
  percentage damage caused to the plant, AVEFA: 5 (5=80-100%)
Setaria faberi (SETFA) [4]
  percentage damage caused to the plant, SETFA: 5 (5=80-100%)
Lolium perenne (LOLPE) [5]
  percentage damage caused to the plant, LOLPE: 5 (5=80-100%)
[6]
  percentage damage caused to the plant, ALOMY: 5 (5=80-100%)
Avena fatua (AVEFA) [7]
  percentage damage caused to the plant, AVEFA: 5 (5=80-100%)
Setaria faberi (SETFA) [8]
  percentage damage caused to the plant, SETFA: 5 (5=80-100%)
[9]
  percentage damage caused to the plant, ECHCG: 5 (5=80-100%)

## CC#Cc1cc(C)c(C2=C(OC(=O)OC)CC3(CCN(S(=O)(=O)N(C)C(=O)OC)CC3)CC2=O)c(C)c1 [Compound P4]
Lolium perenne (LOLPE) [1]
  percentage damage caused to the plant, LOLPE: 5 (5=80-100%)
[2]
  percentage damage caused to the plant, ALOMY: 5 (5=80-100%)
Avena fatua (AVEFA) [3]
  percentage damage caused to the plant, AVEFA: 5 (5=80-100%)
Setaria faberi (SETFA) [4]
  percentage damage caused to the plant, SETFA: 5 (5=80-100%)
[10]
  percentage damage caused to the plant, ECHCG: 5 (5=80-100%)
Lolium perenne (LOLPE) [5]
  percentage damage caused to the plant, LOLPE: 5 (5=80-100%)
[6]
  percentage damage caused to the plant, ALOMY: 5 (5=80-100%)
Avena fatua (AVEFA) [7]
  percentage damage caused to the plant, AVEFA: 5 (5=80-100%)
Setaria faberi (SETFA) [8]
  percentage damage caused to the plant, SETFA: 5 (5=80-100%)
[9]
  percentage damage caused to the plant, ECHCG: 5 (5=80-100%)

## CC#Cc1cc(C)c(C2=C(OC(=O)OC)CC3(CCN(S(=N)(=O)CC)CC3)CC2=O)c(C)c1 (centres unmarked) [Compound P1]
Lolium perenne (LOLPE) [1]
  percentage damage caused to the plant, LOLPE: 5 (5=80-100%)
[2]
  percentage damage caused to the plant, ALOMY: 5 (5=80-100%)
Avena fatua (AVEFA) [3]
  percentage damage caused to the plant, AVEFA: 5 (5=80-100%)
Setaria faberi (SETFA) [4]
  percentage damage caused to the plant, SETFA: 5 (5=80-100%)
[10]
  percentage damage caused to the plant, ECHCG: 5 (5=80-100%)
Lolium perenne (LOLPE) [5]
  percentage damage caused to the plant, LOLPE: 5 (5=80-100%)
[6]
  percentage damage caused to the plant, ALOMY: 5 (5=80-100%)
Avena fatua (AVEFA) [7]
  percentage damage caused to the plant, AVEFA: 5 (5=80-100%)
Setaria faberi (SETFA) [8]
  percentage damage caused to the plant, SETFA: 5 (5=80-100%)
[9]
  percentage damage caused to the plant, ECHCG: 5 (5=80-100%)

## CC#Cc1cc(C)c(C2C(=O)CC3(CCN(S(=O)(=O)NC(C)=O)CC3)CC2=O)c(C)c1 [Compound A13]
Lolium perenne (LOLPE) [1]
  percentage damage caused to the plant, LOLPE: 5 (5=80-100%)
[2]
  percentage damage caused to the plant, ALOMY: 5 (5=80-100%)
Avena fatua (AVEFA) [3]
  percentage damage caused to the plant, AVEFA: 5 (5=80-100%)
Setaria faberi (SETFA) [4]
  percentage damage caused to the plant, SETFA: 5 (5=80-100%)
[10]
  percentage damage caused to the plant, ECHCG: 5 (5=80-100%)
Lolium perenne (LOLPE) [5]
  percentage damage caused to the plant, LOLPE: 5 (5=80-100%)
[6]
  percentage damage caused to the plant, ALOMY: 5 (5=80-100%)
Avena fatua (AVEFA) [7]
  percentage damage caused to the plant, AVEFA: 5 (5=80-100%)
Setaria faberi (SETFA) [8]
  percentage damage caused to the plant, SETFA: 5 (5=80-100%)
[9]
  percentage damage caused to the plant, ECHCG: 5 (5=80-100%)

## CC#Cc1cc(C)c(C2C(=O)CC3(CCN(S(=O)(=O)N(C)C)CC3)CC2=O)c(C)c1 [Compound A4]
Lolium perenne (LOLPE) [1]
  percentage damage caused to the plant, LOLPE: 5 (5=80-100%)
[2]
  percentage damage caused to the plant, ALOMY: 5 (5=80-100%)
Avena fatua (AVEFA) [3]
  percentage damage caused to the plant, AVEFA: 5 (5=80-100%)
Setaria faberi (SETFA) [4]
  percentage damage caused to the plant, SETFA: 5 (5=80-100%)
[10]
  percentage damage caused to the plant, ECHCG: 5 (5=80-100%)
Lolium perenne (LOLPE) [5]
  percentage damage caused to the plant, LOLPE: 5 (5=80-100%)
[6]
  percentage damage caused to the plant, ALOMY: 5 (5=80-100%)
Avena fatua (AVEFA) [7]
  percentage damage caused to the plant, AVEFA: 5 (5=80-100%)
Setaria faberi (SETFA) [8]
  percentage damage caused to the plant, SETFA: 5 (5=80-100%)
[9]
  percentage damage caused to the plant, ECHCG: 5 (5=80-100%)

## CC#Cc1cc(C)c(C2C(=O)CC3(CCN(S(=O)(=O)NCC)CC3)CC2=O)c(C)c1 [Compound A6]
Lolium perenne (LOLPE) [1]
  percentage damage caused to the plant, LOLPE: 5 (5=80-100%)
[2]
  percentage damage caused to the plant, ALOMY: 5 (5=80-100%)
Avena fatua (AVEFA) [3]
  percentage damage caused to the plant, AVEFA: 5 (5=80-100%)
Setaria faberi (SETFA) [4]
  percentage damage caused to the plant, SETFA: 5 (5=80-100%)
[10]
  percentage damage caused to the plant, ECHCG: 5 (5=80-100%)
Lolium perenne (LOLPE) [5]
  percentage damage caused to the plant, LOLPE: 4 (4=60-79%)
[6]
  percentage damage caused to the plant, ALOMY: 3 (3=40-59%)
Avena fatua (AVEFA) [7]
  percentage damage caused to the plant, AVEFA: 4 (4=60-79%)
Setaria faberi (SETFA) [8]
  percentage damage caused to the plant, SETFA: 5 (5=80-100%)
[9]
  percentage damage caused to the plant, ECHCG: 5 (5=80-100%)

## CC#Cc1cc(C)c(C2C(=O)CC3(CCN(S(=O)(=O)N(C)CC#N)CC3)CC2=O)c(C)c1 [Compound A11]
Lolium perenne (LOLPE) [1]
  percentage damage caused to the plant, LOLPE: 5 (5=80-100%)
[2]
  percentage damage caused to the plant, ALOMY: 5 (5=80-100%)
Avena fatua (AVEFA) [3]
  percentage damage caused to the plant, AVEFA: 5 (5=80-100%)
Setaria faberi (SETFA) [4]
  percentage damage caused to the plant, SETFA: 5 (5=80-100%)
[10]
  percentage damage caused to the plant, ECHCG: 5 (5=80-100%)
Lolium perenne (LOLPE) [5]
  percentage damage caused to the plant, LOLPE: 4 (4=60-79%)
[6]
  percentage damage caused to the plant, ALOMY: 1 (1=0-19%)
Avena fatua (AVEFA) [7]
  percentage damage caused to the plant, AVEFA: 2 (2=20-39%)
Setaria faberi (SETFA) [8]
  percentage damage caused to the plant, SETFA: 5 (5=80-100%)
[9]
  percentage damage caused to the plant, ECHCG: 5 (5=80-100%)

## CC#Cc1cc(C)c(C2C(=O)CC3(CCN(S(=N)(=O)c4ccccn4)CC3)CC2=O)c(C)c1 (centres unmarked) [Compound A5]
Lolium perenne (LOLPE) [1]
  percentage damage caused to the plant, LOLPE: 5 (5=80-100%)
Avena fatua (AVEFA) [3]
  percentage damage caused to the plant, AVEFA: 5 (5=80-100%)
Setaria faberi (SETFA) [4]
  percentage damage caused to the plant, SETFA: 5 (5=80-100%)
[10]
  percentage damage caused to the plant, ECHCG: 5 (5=80-100%)
Lolium perenne (LOLPE) [5]
  percentage damage caused to the plant, LOLPE: 5 (5=80-100%)
Avena fatua (AVEFA) [7]
  percentage damage caused to the plant, AVEFA: 5 (5=80-100%)
Setaria faberi (SETFA) [8]
  percentage damage caused to the plant, SETFA: 5 (5=80-100%)
[9]
  percentage damage caused to the plant, ECHCG: 5 (5=80-100%)

## CC#Cc1cc(C)c(C2C(=O)CC3(CCN(S(=O)(=O)N4CCS(=O)(=O)CC4)CC3)CC2=O)c(C)c1 [Compound A12]
Lolium perenne (LOLPE) [1]
  percentage damage caused to the plant, LOLPE: 4 (4=60-79%)
[2]
  percentage damage caused to the plant, ALOMY: 5 (5=80-100%)
Avena fatua (AVEFA) [3]
  percentage damage caused to the plant, AVEFA: 5 (5=80-100%)
Setaria faberi (SETFA) [4]
  percentage damage caused to the plant, SETFA: 5 (5=80-100%)
[10]
  percentage damage caused to the plant, ECHCG: 5 (5=80-100%)
Lolium perenne (LOLPE) [5]
  percentage damage caused to the plant, LOLPE: 4 (4=60-79%)
[6]
  percentage damage caused to the plant, ALOMY: 5 (5=80-100%)
Avena fatua (AVEFA) [7]
  percentage damage caused to the plant, AVEFA: 5 (5=80-100%)
Setaria faberi (SETFA) [8]
  percentage damage caused to the plant, SETFA: 5 (5=80-100%)
[9]
  percentage damage caused to the plant, ECHCG: 5 (5=80-100%)

## CC#Cc1cc(C)c(C2C(=O)CC3(CCN(S(=O)(=O)N4CCOCC4)CC3)CC2=O)c(C)c1 [Compound A7]
Lolium perenne (LOLPE) [1]
  percentage damage caused to the plant, LOLPE: 5 (5=80-100%)
[2]
  percentage damage caused to the plant, ALOMY: 5 (5=80-100%)
Avena fatua (AVEFA) [3]
  percentage damage caused to the plant, AVEFA: 5 (5=80-100%)
Setaria faberi (SETFA) [4]
  percentage damage caused to the plant, SETFA: 5 (5=80-100%)
[10]
  percentage damage caused to the plant, ECHCG: 5 (5=80-100%)
Lolium perenne (LOLPE) [5]
  percentage damage caused to the plant, LOLPE: 5 (5=80-100%)
[6]
  percentage damage caused to the plant, ALOMY: 2 (2=20-39%)
Avena fatua (AVEFA) [7]
  percentage damage caused to the plant, AVEFA: 1 (1=0-19%)
Setaria faberi (SETFA) [8]
  percentage damage caused to the plant, SETFA: 5 (5=80-100%)
[9]
  percentage damage caused to the plant, ECHCG: 5 (5=80-100%)

## CC#Cc1cc(C)c(C2C(=O)CC3(CCN(S(=N)(=O)CC)CC3)CC2=O)c(C)c1 (centres unmarked) [Compound A2]
Lolium perenne (LOLPE) [1]
  percentage damage caused to the plant, LOLPE: 5 (5=80-100%)
[2]
  percentage damage caused to the plant, ALOMY: 5 (5=80-100%)
Avena fatua (AVEFA) [3]
  percentage damage caused to the plant, AVEFA: 5 (5=80-100%)
Setaria faberi (SETFA) [4]
  percentage damage caused to the plant, SETFA: 5 (5=80-100%)
[10]
  percentage damage caused to the plant, ECHCG: 5 (5=80-100%)
Lolium perenne (LOLPE) [5]
  percentage damage caused to the plant, LOLPE: 5 (5=80-100%)
[6]
  percentage damage caused to the plant, ALOMY: 5 (5=80-100%)
Avena fatua (AVEFA) [7]
  percentage damage caused to the plant, AVEFA: 5 (5=80-100%)
Setaria faberi (SETFA) [8]
  percentage damage caused to the plant, SETFA: 5 (5=80-100%)
[9]
  percentage damage caused to the plant, ECHCG: 5 (5=80-100%)

From patent US12281081B2, “Herbicidal compounds” (SYNGENTA CROP PROTECTION AG, priority 2019, dated 2025)
